Read-outs that look alike come from different tables or passages of the source.
Columns and labels:
[1] = molecular target: T1, native MDH (malate dehydrogenase) (Sus scrofa, UniProt P00346); type: biochemical
T1 sequence (P00346 25-338): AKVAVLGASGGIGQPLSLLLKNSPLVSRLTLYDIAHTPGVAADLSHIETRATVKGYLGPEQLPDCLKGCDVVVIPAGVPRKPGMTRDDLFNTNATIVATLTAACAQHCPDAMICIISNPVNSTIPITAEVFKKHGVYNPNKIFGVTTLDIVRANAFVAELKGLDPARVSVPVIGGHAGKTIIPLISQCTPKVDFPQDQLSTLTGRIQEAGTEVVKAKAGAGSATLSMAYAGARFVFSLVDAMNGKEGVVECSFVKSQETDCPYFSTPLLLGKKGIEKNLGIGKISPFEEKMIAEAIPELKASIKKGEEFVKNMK

NEB 5-alpha E. coli = type: cell-based, Escherichia coli; conditions: 12-day serial passage, duplicates
[2] = test system: human FHs 74 Int small intestinal cells; test: Alamar Blue cell viability assay, FHs 74 Int small intestine cells; conditions: for Cytotoxicity to human cells (in words): FHs 74 Int shown, FHC colon cells similar
[3] = molecular target: T1, native MDH (malate dehydrogenase); test: Native MDH enzymatic activity counter-screen; type: biochemical
[4] = test system: resistant E. coli strains; test: Cross-resistance testing of resistant E. coli strains; type: cell-based, Escherichia coli; conditions: for Cross-resistance of nifuroxazide-resistant E. coli strains (in words): strains initially made resistant to nifuroxazide; for Cross-resistance of nitrofurantoin-resistant E. coli strains (in words): strains initially made resistant to nitrofurantoin; for Cross-resistance of 17-resistant E. coli strains (in words): strains initially made resistant to 17
[5] = test system: Klebsiella pneumoniae (ATCC #13883); test: K. pneumoniae bacterial proliferation assay; type: cell-based
E. coli GroEL/ES = E. coli GroEL/ES (Escherichia coli, UniProt P0A6F5); test: In situ NfsB-GroEL/ES-dMDH refolding assay; type: biochemical; conditions: activated by E. coli NfsB
[6] = test system: human mitochondrial HSP60/10 chaperonin system; conditions: ref [59], [84]; cited from earlier work
human FHC colon cells = test: Alamar Blue cell viability assay, FHC colon cells; conditions: CC50 FHC colon cells over EC50 E. coli proliferation

Sequence of E. coli GroEL/ES (P0A6F5 2-548): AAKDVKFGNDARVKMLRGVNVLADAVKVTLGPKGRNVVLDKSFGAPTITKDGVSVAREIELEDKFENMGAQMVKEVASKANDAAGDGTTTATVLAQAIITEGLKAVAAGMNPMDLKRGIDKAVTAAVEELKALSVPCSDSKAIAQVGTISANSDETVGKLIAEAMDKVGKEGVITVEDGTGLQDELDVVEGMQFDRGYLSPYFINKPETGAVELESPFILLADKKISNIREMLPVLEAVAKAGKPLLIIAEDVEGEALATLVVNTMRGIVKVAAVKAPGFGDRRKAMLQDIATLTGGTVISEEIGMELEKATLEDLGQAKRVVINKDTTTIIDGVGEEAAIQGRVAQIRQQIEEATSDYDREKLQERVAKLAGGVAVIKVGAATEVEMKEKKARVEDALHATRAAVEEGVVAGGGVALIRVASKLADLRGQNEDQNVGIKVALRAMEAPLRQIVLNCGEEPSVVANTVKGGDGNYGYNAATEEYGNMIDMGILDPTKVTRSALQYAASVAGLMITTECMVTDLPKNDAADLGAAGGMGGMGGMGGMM

SMILES: O=C(N/N=C/c1ccc([N+](=O)[O-])o1)c1ccc(Cl)s1 [compound 17]
- IC50 [1]: > 56 µM
- Time for E. coli to develop intermediate resistance (NEB 5-alpha E. coli): 3 to 5 days
- Cytotoxicity to human cells (in words) [2]: low to no cytotoxicity
- IC50 [3]: > 63 µM
- Cross-resistance of nifuroxazide-resistant E. coli strains (in words) [4]: cross-resistant
- Cross-resistance of nitrofurantoin-resistant E. coli strains (in words) [4]: still sensitive
- Inhibition of K. pneumoniae (in words) [5]: moderate inhibitors of K. pneumoniae

SMILES: O=C(N/N=C/c1ccc([N+](=O)[O-])o1)c1ccc(O)cc1 [Nifuroxazide]
- Time for E. coli to develop intermediate resistance (NEB 5-alpha E. coli): 3 to 5 days
- GroEL/ES inhibition in the presence of NfsB (in words) (E. coli GroEL/ES): weak to moderate
- Cytotoxicity to human cells (in words) [2]: low to no cytotoxicity
- Cross-resistance of 17-resistant E. coli strains (in words) [4]: susceptible
- Cross-resistance of nitrofurantoin-resistant E. coli strains (in words) [4]: still sensitive

SMILES: Cc1ccc(C(=O)Nc2ccc(S(=O)(=O)O)c3cc(S(=O)(=O)O)cc(S(=O)(=O)O)c23)cc1NC(=O)c1cccc(NC(=O)Nc2cccc(C(=O)Nc3cc(C(=O)Nc4ccc(S(=O)(=O)O)c5cc(S(=O)(=O)O)cc(S(=O)(=O)O)c45)ccc3C)c2)c1 [suramin]
- HSP60/10 inhibition (in words) [6]: potent HSP60/10 inhibitor

SMILES: COc1ccc(C(=O)N/N=C/c2ccc([N+](=O)[O-])o2)cc1 [compound 20]
- IC50 [1]: > 56 µM
- Cytotoxicity to human cells (in words) [2]: low to no cytotoxicity
- IC50 [3]: > 63 µM
- SI (CC50 / EC50) Colon (human FHC colon cells): >53

SMILES: O=C(N/N=C/c1ccc([N+](=O)[O-])o1)c1ccncc1 [compound 19]
- IC50 [1]: > 56 µM
- IC50 [3]: > 63 µM

SMILES: O=C(N/N=C/c1ccc([N+](=O)[O-])o1)c1ccccc1 [compound 18]
- IC50 [1]: > 56 µM
- IC50 [3]: > 63 µM

SMILES: CN(C)c1ccc(C(=O)N/N=C/c2ccc([N+](=O)[O-])o2)cc1 [compound 21]
- IC50 [1]: > 56 µM
- IC50 [3]: > 63 µM

SMILES: O=C(N/N=C/c1ccc([N+](=O)[O-])o1)c1cccs1 [compound 16]
- IC50 [1]: > 56 µM
- Cytotoxicity to human cells (in words) [2]: low to no cytotoxicity
- IC50 [3]: > 63 µM
- Inhibition of K. pneumoniae (in words) [5]: moderate inhibitors of K. pneumoniae

SMILES: O=C1CN(/N=C/c2ccc([N+](=O)[O-])o2)C(=O)N1 [Nitrofurantoin, reference compound]
- IC50 [1]: > 56 µM
- Time for E. coli to develop intermediate resistance (NEB 5-alpha E. coli): 3 to 5 days
- GroEL/ES inhibition in the presence of NfsB (in words) (E. coli GroEL/ES): weak to moderate
- SI (CC50 / EC50) Intestine ([2]; CC50 FHs 74 Int cells over EC50 E. coli proliferation): >146
- Cytotoxicity to human cells (in words) [2]: low to no cytotoxicity
- IC50 [3]: > 63 µM
- Cross-resistance of 17-resistant E. coli strains (in words) [4]: susceptible to nifuroxazide, but not nitrofurantoin
- Cross-resistance of nifuroxazide-resistant E. coli strains (in words) [4]: cross-resistant
- SI (CC50 / EC50) Colon (human FHC colon cells): >146

Reference: article PMC7914298 (Bioorganic & medicinal chemistry, 2020)
